In PubChem BioAssay (NCI):
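96-well plates; 48 h exposure; 5 concentrations. Endpoints by linear interpolation between flanking doses. Not reached: highest tested concentration assigned. Abbreviation: GI50, concentration required for 50% inhibition of growth. The concentration for full growth arrest is given as TGI.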

Experiments:
Test in all cases: inhibition of tumour cell growth, NCI panel, 48 h
IGROV1 ovarian = tested on: IGROV1 ovarian
LOX IMVI melanoma = tested on: LOX IMVI melanoma
EKVX NSCLC = tested on: EKVX NSCLC
NCI-H522 lung = tested on: NCI-H522 lung
SK-MEL-5 melanoma = tested on: SK-MEL-5 melanoma
RPMI-8226 leukemia = tested on: RPMI-8226 leukemia
CCRF-CEM leukemia = tested on: CCRF-CEM leukemia
HL-60(TB) leukemia = tested on: HL-60(TB) leukemia
OVCAR-3 ovarian = tested on: OVCAR-3 ovarian
HOP-92 NSCLC = tested on: HOP-92 NSCLC
NCI/ADR-RES ovarian = tested on: NCI/ADR-RES ovarian
PC-3 prostate = tested on: PC-3 prostate
DU-145 prostate = tested on: DU-145 prostate
786-0 renal = tested on: 786-0 renal
HCC-2998 colon = tested on: HCC-2998 colon
SW-620 colon = tested on: SW-620 colon
K-562 leukemia = tested on: K-562 leukemia
A498 renal = tested on: A498 renal
OVCAR-5 ovarian = tested on: OVCAR-5 ovarian
NCI-H23 lung = tested on: NCI-H23 lung
SK-MEL-2 melanoma = tested on: SK-MEL-2 melanoma
SF-268 CNS = tested on: SF-268 CNS
U251 CNS = tested on: U251 CNS
T-47D breast = tested on: T-47D breast
NCI-H460 lung = tested on: NCI-H460 lung
OVCAR-8 ovarian = tested on: OVCAR-8 ovarian
MDA-MB-231 breast = tested on: MDA-MB-231 breast
HT29 colon = tested on: HT29 colon
HS 578T breast = tested on: HS 578T breast
SF-295 CNS = tested on: SF-295 CNS
HCT-116 colon = tested on: HCT-116 colon
SN12C renal = tested on: SN12C renal
SF-539 CNS = tested on: SF-539 CNS
UACC-62 melanoma = tested on: UACC-62 melanoma
OVCAR-4 ovarian = tested on: OVCAR-4 ovarian
UACC-257 melanoma = tested on: UACC-257 melanoma
SK-MEL-28 melanoma = tested on: SK-MEL-28 melanoma
SNB-75 CNS = tested on: SNB-75 CNS
UO-31 renal = tested on: UO-31 renal
MCF7 breast = tested on: MCF7 breast
SNB-19 CNS = tested on: SNB-19 CNS
ACHN renal = tested on: ACHN renal
RXF 393 renal = tested on: RXF 393 renal
HCT-15 colon = tested on: HCT-15 colon
TK-10 renal = tested on: TK-10 renal
MDA-MB-435 = tested on: MDA-MB-435
M14 melanoma = tested on: M14 melanoma
KM12 colon = tested on: KM12 colon
CAKI-1 renal = tested on: CAKI-1 renal
COLO 205 colon = tested on: COLO 205 colon
SR leukemia = tested on: SR leukemia
MOLT-4 leukemia = tested on: MOLT-4 leukemia
MALME-3M melanoma = tested on: MALME-3M melanoma
NCI-H226 lung = tested on: NCI-H226 lung
A549 NSCLC = tested on: A549 NSCLC
HOP-62 NSCLC = tested on: HOP-62 NSCLC
BT-549 breast = tested on: BT-549 breast

Structure (SMILES): COc1ccc2c(c1)C(=O)c1c-2c(Nc2cccc(C(C)=O)c2)nc2ccccc12
- GI50 (IGROV1 ovarian): 3.67 µM
- TGI (IGROV1 ovarian): 18.4 µM
- GI50 (LOX IMVI melanoma): 13.4 µM
- TGI (LOX IMVI melanoma): 27.5 µM
- GI50 (EKVX NSCLC): 12.5 µM
- TGI (EKVX NSCLC): 32.1 µM
- GI50 (NCI-H522 lung): 8.53 µM
- TGI (NCI-H522 lung): 35.1 µM
- GI50 (SK-MEL-5 melanoma): 5.22 µM
- TGI (SK-MEL-5 melanoma): 18.9 µM
- GI50 (RPMI-8226 leukemia): 17.5 µM
- TGI (RPMI-8226 leukemia): 70.7 µM
- GI50 (CCRF-CEM leukemia): > 100 µM
- TGI (CCRF-CEM leukemia): > 100 µM
- GI50 (HL-60(TB) leukemia): > 100 µM
- TGI (HL-60(TB) leukemia): > 100 µM
- GI50 (OVCAR-3 ovarian): 19.7 µM
- TGI (OVCAR-3 ovarian): 42.8 µM
- GI50 (HOP-92 NSCLC): 11.1 µM
- TGI (HOP-92 NSCLC): 27.7 µM
- GI50 (NCI/ADR-RES ovarian): 8.66 µM
- TGI (NCI/ADR-RES ovarian): 28.3 µM
- GI50 (PC-3 prostate): 14.3 µM
- TGI (PC-3 prostate): 32.5 µM
- GI50 (DU-145 prostate): 11.7 µM
- TGI (DU-145 prostate): 32.2 µM
- GI50 (786-0 renal): 3.78 µM
- TGI (786-0 renal): 14 µM
- GI50 (HCC-2998 colon): 16.1 µM
- TGI (HCC-2998 colon): 91.4 µM
- GI50 (SW-620 colon): 21.2 µM
- TGI (SW-620 colon): > 100 µM
- GI50 (K-562 leukemia): 44.7 µM
- TGI (K-562 leukemia): > 100 µM
- GI50 (A498 renal): 3.09 µM
- TGI (A498 renal): 15 µM
- GI50 (OVCAR-5 ovarian): 11.4 µM
- TGI (OVCAR-5 ovarian): 24.5 µM
- GI50 (NCI-H23 lung): 4.86 µM
- TGI (NCI-H23 lung): 19.3 µM
- GI50 (SK-MEL-2 melanoma): 16.4 µM
- TGI (SK-MEL-2 melanoma): 53.5 µM
- GI50 (SF-268 CNS): 36.5 µM
- TGI (SF-268 CNS): > 100 µM
- GI50 (U251 CNS): 3.09 µM
- TGI (U251 CNS): 12.3 µM
- GI50 (T-47D breast): 13.6 µM
- TGI (T-47D breast): 55.2 µM
- GI50 (NCI-H460 lung): 23.5 µM
- TGI (NCI-H460 lung): > 100 µM
- GI50 (OVCAR-8 ovarian): 14.5 µM
- TGI (OVCAR-8 ovarian): 34.7 µM
- GI50 (MDA-MB-231 breast): 3.21 µM
- TGI (MDA-MB-231 breast): 12.7 µM
- GI50 (HT29 colon): 21.2 µM
- TGI (HT29 colon): > 100 µM
- GI50 (HS 578T breast): 3.19 µM
- TGI (HS 578T breast): 15.5 µM
- GI50 (SF-295 CNS): 21.7 µM
- TGI (SF-295 CNS): 56.2 µM
- GI50 (HCT-116 colon): 2.64 µM
- TGI (HCT-116 colon): 10.9 µM
- GI50 (SN12C renal): 10.3 µM
- TGI (SN12C renal): 40.1 µM
- GI50 (SF-539 CNS): 10.2 µM
- TGI (SF-539 CNS): 22.2 µM
- GI50 (UACC-62 melanoma): 11.6 µM
- TGI (UACC-62 melanoma): 27.7 µM
- GI50 (OVCAR-4 ovarian): 15.5 µM
- TGI (OVCAR-4 ovarian): > 100 µM
- GI50 (UACC-257 melanoma): 23.9 µM
- TGI (UACC-257 melanoma): 61.7 µM
- GI50 (SK-MEL-28 melanoma): 15.1 µM
- TGI (SK-MEL-28 melanoma): 64.6 µM
- GI50 (SNB-75 CNS): 5.55 µM
- TGI (SNB-75 CNS): 20.5 µM
- GI50 (UO-31 renal): 15.4 µM
- TGI (UO-31 renal): 45.2 µM
- GI50 (MCF7 breast): 24 µM
- TGI (MCF7 breast): > 100 µM
- GI50 (SNB-19 CNS): 5.99 µM
- TGI (SNB-19 CNS): 18.3 µM
- GI50 (ACHN renal): 4.21 µM
- TGI (ACHN renal): 14.9 µM
- GI50 (RXF 393 renal): 9.79 µM
- TGI (RXF 393 renal): 31.5 µM
- GI50 (HCT-15 colon): 24 µM
- TGI (HCT-15 colon): > 100 µM
- GI50 (TK-10 renal): 24.8 µM
- TGI (TK-10 renal): 65 µM
- GI50 (MDA-MB-435): 30.8 µM
- TGI (MDA-MB-435): > 100 µM
- GI50 (M14 melanoma): 15.5 µM
- TGI (M14 melanoma): 46.5 µM
- GI50 (KM12 colon): 27 µM
- TGI (KM12 colon): > 100 µM
- GI50 (CAKI-1 renal): 20.3 µM
- TGI (CAKI-1 renal): 43.6 µM
- GI50 (COLO 205 colon): 37.9 µM
- TGI (COLO 205 colon): > 100 µM
- GI50 (SR leukemia): 21.6 µM
- TGI (SR leukemia): > 100 µM
- GI50 (MOLT-4 leukemia): 64.6 µM
- TGI (MOLT-4 leukemia): > 100 µM
- GI50 (MALME-3M melanoma): 18 µM
- TGI (MALME-3M melanoma): 48.3 µM
- GI50 (NCI-H226 lung): 11.7 µM
- TGI (NCI-H226 lung): 35.8 µM
- GI50 (A549 NSCLC): 17.7 µM
- TGI (A549 NSCLC): 40.5 µM
- GI50 (HOP-62 NSCLC): 0.727 µM
- TGI (HOP-62 NSCLC): 2.49 µM
- GI50 (BT-549 breast): 9.68 µM
- TGI (BT-549 breast): 21.4 µM
